For 15 molecules, IC50 results are on record in patent US20250206758A1, “SUBSTITUTED BRIDGED RING INHIBITOR, PREPARATION METHOD THEREFOR AND APPLICATION THEREOF” (SUZHOU ZELGEN BIOPHARMACEUTICALS CO., LTD., priority 2022, published 2025).

Counter-ions that a name gives are not always drawn. Like-named read-outs stand apart in the source and are kept apart here.

The subject of one assay is GP2D. The assay can be described thus: Cell proliferation inhibition, GP2D (CellTiter-Glo 3D, 7 days). Type of assay: cell-based. How it is done:
(§1) • (a) Resuscitating cells in T75 cell culture flask: • (b) When the cell confluence reaches 80-90%, subculturing the cells.
(§2) The diluted test compound was added to a 384-well cell culture plate with a nanoliter pipetting system, and duplicate wells were set up. An equal volume of culture medium was added to the positive control group; and an equal volume of DMSO was added to the negative control group, then centrifugation was conducted at 1000 rpm for 1 min at room temperature.
(§3) Cells were inoculated into a) 384-well culture plate, with an equal volume of cells added to the negative control group, and only an equal volume of culture medium added to the positive control group. The plate was centrifuged at 1000 rpm for 1 min at room temperature, and the final DMSO concentration of the compound was 0.5% at last. The plate was placed in a 37° C., 5% CO2 constant temperature incubator for 7 days.
(§4) 20 μL/well of CellTiter-Glo® 3D to b) was added to 384-well cell culture plate, and the plate was shook at 320 rpm for 20 min in the dark, and incubated at room temperature in the dark for 2 hrs.
(§5) The luminescence value was read using an Envision multi-functional microplate reader.
(§6) The inhibition rate (IR) of the test compound was calculated using the following formula: IR (%)=(1−(RLU compound−RLU blank control)/(RLU meidum control−RLU blank control))*100%. The inhibition rates of different concentrations of compounds were calculated in Excel, and then the inhibition curves were plotted and the related parameters (including the minimum inhibition rate, maximum inhibition rate and IC50) were calculated using GraphPad Prism software.

The test system of a further assay is AsPC-1. Kind of assay: Cell proliferation inhibition, AsPC-1 (CellTiter-Glo 3D, 7 days). Type of assay: cell-based. To be noted: AsPC-1, 7 days. On the procedure:
as §1, §2, §3, §4, §5, §6

`C#Cc1c(F)ccc2cc(O)cc(-c3ncc4c(N5C[C@H]6CC[C@@H](C5)N6)nc(OC[C@]56CCC7(CC7)N5C[C@@H](F)C6)nc4c3F)c12` (relative stereo) [Example 12A, 4-(4-((1R,5S)-3,8-diazabicyclo[3.2.1]octan-3-yl)-8-fluoro-2-(((trans)-6′-fluorotetrahydrospiro[cyclopropan-1,3′-pyrrolizin]-7a′(5′H)-yl)methoxy)pyridino[4,3-d]pyrimidin-7-yl)-5-ethynyl-6-fluoronaphthalen-2-ol]: the IC50 with GP2D (168 h) amounted to 3.07 nM; in the assay on AsPC-1 (Homo sapiens, ASPC1, 168 h), 24.8 nM.
For `C#Cc1c(F)ccc2cc(O)cc(-c3ncc4c(N5C[C@H]6CC[C@@H](C5)N6)nc(OC[C@@]56CCC7(CC7)N5C[C@@H](F)C6)nc4c3F)c12` (relative stereo) [Example 12B, 4-(4-((1R,5S)-3,8-diazabicyclo[3.2.1]octan-3-yl)-8-fluoro-2-(((cis)-6′-fluorotetrahydrospiro[cyclopropan-1,3′-pyrrolizin]-7a′(5′H)-yl)methoxy)pyridino[4,3-d]pyrimidin-7-yl)-5-ethynyl-6-fluoronaphthalen-2-ol], the IC50 in the assay on GP2D (168 h) turned out to be 29.6 nM; with AsPC-1 (Homo sapiens, ASPC1, 168 h), 390 nM.
As to `C#Cc1c(F)ccc2cc(O)cc(-c3ncc4c(N5C[C@H]6CC[C@@H](C5)N6)nc(OC[C@]56C[C@@H](F)CN5CC5(CC5)C6)nc4c3F)c12` [Example 10A, 4-(4-((1R,5S)-3,8-diazabicyclo[3.2.1]octan-3-yl)-8-fluoro-2-(((6′R,7a'S)-6′-fluorodihydro-1′H,3′H-spiro[cyclopropan-1,2′-pyrrolizin]-7a′(5′H)-yl)methoxy)pyridino[4,3-d]pyrimidin-7-yl)-5-ethynyl-6-fluoronaphthalen-2-ol], the IC50 in the assay with GP2D (168 h) was 1.07 nM; with AsPC-1 (Homo sapiens, ASPC1, 168 h) it was 23.5 nM.
In the same order, the values of `C#Cc1c(F)ccc2cc(O)cc(-c3ncc4c(N5C[C@H]6CC[C@@H](C5)N6)nc(OC[C@@]56C[C@@H](F)CN5CC5(CC5)C6)nc4c3F)c12` [Example 10B, 4-(4-((1R,5S)-3,8-diazabicyclo[3.2.1]octan-3-yl)-8-fluoro-2-(((6′R,7a′R)-6′-fluorodihydro-1′H,3′H-spiro[cyclopropan-1,2′-pyrrolizin]-7a′(5′H)-yl)methoxy)pyridino[4,3-d]pyrimidin-7-yl)-5-ethynyl-6-fluoronaphthalen-2-ol] are 0.51 nM and 17.3 nM.
The like results for `C#Cc1c(F)ccc2cc(O)cc(-c3ncc4c(N5CC6CCC(C5)N6)nc(OCC56CCCN5C5(CC5)CC6)nc4c3F)c12` [Example 11, 4-(4-((1R,5S)-3,8-diazabicyclo[3.2.1]octan-3-yl)-8-fluoro-2-((tetrahydrospiro[cyclopropan-1,3′-pyrrolizin]-7a′(5′H)-yl)methoxy)pyridino[4,3d]pyrimidin-7-yl)-5-ethynyl-6-fluoronaphthalen-2-ol] were, in that order, 3.01 nM and 38.2 nM.
For `C#Cc1c(F)ccc2cc(O)cc(-c3ncc4c(N5CC6CCC(C5)N6)nc(OCC56CC(F)(F)CCN5CC5(CC5)C6)nc4c3F)c12` [Example 13, 4-(4-((1R,5S)-3,8-diazabicyclo[3.2.1]octan-3-yl)-2-((7′,7′-difluorotetrahydro-3′-H-spiro[cyclopropan-1,2′-pyrrolizin]-8a′(1′H)-yl)methoxy)-8-fluoropyridino[4,3d]pyrimidin-7-yl)-5-ethynyl-6-fluoronaphthalen-2-ol trifluoroacetate], the IC50 in the assay on GP2D (168 h) is 42.8 nM; in the assay with AsPC-1 (Homo sapiens, ASPC1, 168 h) it was 210 nM.
Take `C#Cc1c(F)ccc2cc(O)cc(-c3ncc4c(N5C[C@H]6CC[C@@H](C5)N6)nc(OCC56CC(F)(F)CN5CC5(CC5)C6)nc4c3F)c12` (stereo partly drawn) [Example 14, 4-(4-((1R,5S)-3,8-diazabicyclo[3.2.1]octan-3-yl)-2-((6′,6′-difluorotetrahydro-3′-H-spiro[cyclopropan-1,2′-pyrrolizin]-8a′(1′H)-yl)methoxy)-8-fluoropyridino[4,3d]pyrimidin-7-yl)-5-ethynyl-6-fluoronaphthalen-2-ol]: the IC50 was > 100 nM in the assay on GP2D and 921 nM in the assay with AsPC-1.
As for `C#Cc1c(F)ccc2cc(O)cc(-c3ncc4c(N5C[C@H]6CC[C@@H](C5)N6)nc(OC[C@]56C[C@@H](F)CN5C[C@@]5(CC5(F)F)C6)nc4c3F)c12` [Example 15A, 4-(4-((1R,5S)-3,8-diazabicyclo[3.2.1]octan-3-yl)-8-fluoro-2-(((1S,6′R,7a'S)-2,2,6′-trifluorodihydro-1′H,3′H-spiro[cyclopropan-1,2′-pyrrolizin]-7a′(5′H)-yl)methoxy)pyridino[4,3-d]pyrimidin-7-yl)-5-ethynyl-6-fluoronaphthalen-2-ol], the concentration for half-maximal inhibition (IC50) in the assay with GP2D (168 h) was determined as 13.1 nM; with AsPC-1 (Homo sapiens, ASPC1, 168 h) it was 108 nM.
The like results for `C#Cc1c(F)ccc2cc(O)cc(-c3ncc4c(N5C[C@H]6CC[C@@H](C5)N6)nc(OC[C@]56C[C@@H](F)CN5C[C@]5(CC5(F)F)C6)nc4c3F)c12` [Example 15B, 4-(4-((1R,5S)-3,8-diazabicyclo[3.2.1]octan-3-yl)-8-fluoro-2-(((1R,6′R,7a'S)-2,2,6′-trifluorodihydro-1′H,3′H-spiro[cyclopropan-1,2′-pyrrolizin]-7a′(5′H)-yl)methoxy)pyridino[4,3-d]pyrimidin-7-yl)-5-ethynyl-6-fluoronaphthalen-2-ol] were, in that order, 7.35 nM and 50.8 nM.
The like results for `C#Cc1c(F)ccc2cc(O)cc(-c3ncc4c(N5C[C@H]6CC[C@@H](C5)N6)nc(OC[C@@]56C[C@@H](F)CN5C[C@@]5(CC5(F)F)C6)nc4c3F)c12` [Example 15C, 4-(4-((1R,5S)-3,8-diazabicyclo[3.2.1]octan-3-yl)-8-fluoro-2-(((1S,6′R,7a′R)-2,2,6′-trifluorodihydro-1′H,3′H-spiro[cyclopropan-1,2′-pyrrolizin]-7a′(5′H)-yl)methoxy)pyridino[4,3-d]pyrimidin-7-yl)-5-ethynyl-6-fluoronaphthalen-2-ol] were, in that order, 12.1 nM and 60.6 nM.
For `C#Cc1c(F)ccc2cc(O)cc(-c3ncc4c(N5C[C@H]6CC[C@@H](C5)N6)nc(OC[C@@]56C[C@@H](F)CN5C[C@]5(CC5(F)F)C6)nc4c3F)c12` [Example 15D, 4-(4-((1R,5S)-3,8-diazabicyclo[3.2.1]octan-3-yl)-8-fluoro-2-(((1R,6′R,7a′R)-2,2,6′-trifluorodihydro-1′H,3′H-spiro[cyclopropan-1,2′-pyrrolizin]-7a′(5′H)-yl)methoxy)pyridino[4,3-d]pyrimidin-7-yl)-5-ethynyl-6-fluoronaphthalen-2-ol], the IC50 stood at 44.5 nM in the assay on GP2D (168 h) and 177 nM with AsPC-1 (Homo sapiens, ASPC1, 168 h).
Regarding `C#Cc1c(F)ccc2cc(O)cc(-c3ncc4c(N5C[C@H]6CC[C@@H](C5)N6)nc(OC[C@]56C[C@H](F)CN5C[C@@]5(CC5(F)F)C6)nc4c3F)c12` [Example 15E, 4-(4-((1R,5S)-3,8-diazabicyclo[3.2.1]octan-3-yl)-8-fluoro-2-(((1S,6'S,7a'S)-2,2,6′-trifluorodihydro-1′H,3′H-spiro[cyclopropan-1,2′-pyrrolizin]-7a′(5′H)-yl)methoxy)pyridino[4,3-d]pyrimidin-7-yl)-5-ethynyl-6-fluoronaphthalen-2-ol], the half-maximal inhibitory concentration (IC50) in the assay on GP2D (168 h) worked out at 32.2 nM; in the assay with AsPC-1 (Homo sapiens, ASPC1, 168 h), 314 nM.
In the case of `C#Cc1c(F)ccc2cc(O)cc(-c3ncc4c(N5C[C@H]6CC[C@@H](C5)N6)nc(OC[C@]56C[C@H](F)CN5C[C@]5(CC5(F)F)C6)nc4c3F)c12` [Example 15F, 4-(4-((1R,5S)-3,8-diazabicyclo[3.2.1]octan-3-yl)-8-fluoro-2-(((1R,6'S,7a'S)-2,2,6′-trifluorodihydro-1′H,3′H-spiro[cyclopropan-1,2′-pyrrolizin]-7a′(5′H)-yl)methoxy)pyridino[4,3-d]pyrimidin-7-yl)-5-ethynyl-6-fluoronaphthalen-2-ol], the IC50 was > 100 nM with GP2D (168 h) and > 1000 nM with AsPC-1 (Homo sapiens, ASPC1, 168 h).
Turning to `C#Cc1c(F)ccc2cc(O)cc(-c3ncc4c(N5C[C@H]6CC[C@@H](C5)N6)nc(OC[C@@]56C[C@H](F)CN5C[C@@]5(CC5(F)F)C6)nc4c3F)c12` [Example 15G, 4-(4-((1R,5S)-3,8-diazabicyclo[3.2.1]octan-3-yl)-8-fluoro-2-(((1S,6'S,7a′R)-2,2,6′-trifluorodihydro-1′H,3′H-spiro[cyclopropan-1,2′-pyrrolizin]-7a′(5′H)-yl)methoxy)pyridino[4,3-d]pyrimidin-7-yl)-5-ethynyl-6-fluoronaphthalen-2-ol], the IC50 with GP2D (168 h) turned out to be 39.1 nM; with AsPC-1 (Homo sapiens, ASPC1, 168 h), 329 nM.
With `C#Cc1c(F)ccc2cc(O)cc(-c3ncc4c(N5C[C@H]6CC[C@@H](C5)N6)nc(OC[C@@]56C[C@H](F)CN5C[C@]5(CC5(F)F)C6)nc4c3F)c12` [Example 15H, 4-(4-((1R,5S)-3,8-diazabicyclo[3.2.1]octan-3-yl)-8-fluoro-2-(((1R,6'S,7a′R)-2,2,6′-trifluorodihydro-1′H,3′H-spiro[cyclopropan-1,2′-pyrrolizin]-7a′(5′H)-yl)methoxy)pyridino[4,3-d]pyrimidin-7-yl)-5-ethynyl-6-fluoronaphthalen-2-ol], the IC50 is 9.3 nM in the assay with GP2D (168 h) and 226 nM in the assay with AsPC-1 (Homo sapiens, ASPC1, 168 h).
